The results in this text go back to patent publication US20260200928A1, “THERAPEUTIC COMPOUNDS” (Sanofi, priority 2022, published 2026).

For this assay, the target named is T1, human IL-17A (Homo sapiens, UniProt Q16552).
T1 construct: purchased R&D Systems 7955-IL/CF
T1 sequence (Q16552 24-155): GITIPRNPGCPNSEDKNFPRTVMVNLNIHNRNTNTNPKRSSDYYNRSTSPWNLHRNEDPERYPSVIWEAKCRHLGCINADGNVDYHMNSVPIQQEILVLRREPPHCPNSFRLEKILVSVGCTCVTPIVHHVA
The assay is described as follows: IL-17A AlphaLISA competition assay (block of IL-17A binding to its receptor IL-17RA). Conditions: mean IC50 (n≥2), block of IL-17A binding to IL-17RA. The gist of the method:
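Human recombinant IL-17A (7.5 nM stock) pre-incubated 30 min at RT with compound, then IL-17RA/Fc (5 nM stock) added for 90 min; AlphaLISA read with anti-Fc acceptor beads, biotinylated anti-IL-17A antibody (5 nM) and streptavidin donor beads (3 h, dark). IC50 from 4-parameter logistic fit, normalised to DMSO and 4 μM reference inhibitor; n≥2.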
(In general: Bead proximity is the source of the signal in Alpha formats.)
In turn, `COCC(NC(=O)CCC(F)(F)F)c1ccnc(NC(=O)C(NC(=O)c2ccnn2C)C2CCC(C)CC2)c1` [Example 245, N-((1S)-2-((4-(2-methoxy-1-(4,4,4-trifluorobutanamido)ethyl)pyridin-2-yl)amino)-1-((1r,4S)-4-methylcyclohexyl)-2-oxoethyl)-1-methyl-1H-pyrazole-5-carboxamide] returned an IC50 of 0.073 µM. The result for `COCC(NC(=O)CCC(F)(F)F)c1ccnc(NC(=O)C(NC(=O)c2ccnn2C(C)C)C2CCC(C)CC2)c1` [Example 246, 1-isopropyl-N-((1S)-2-((4-(2-methoxy-1-(4,4,4-trifluorobutanamido)ethyl)pyridin-2-yl)amino)-1-((1r,4S)-4-methylcyclohexyl)-2-oxoethyl)-1H-pyrazole-5-carboxamide] reads 0.072 µM. The result for `COCC(c1ccnc(NC(=O)C(NC(=O)C(F)c2ccccc2)C2CCC(C)CC2)c1)N1CC(C(F)(F)F)NC1=O` [Example 254, 2-fluoro-N-((S)-2-((4-((S)-2-methoxy-1-((S)-2-oxo-4-(trifluoromethyl)-imidazolidin-1-yl)ethyl)pyridin-2-yl)amino)-1-((1r,4S)-4-methylcyclohexyl)-2-oxoethyl)-2-phenylacetamide] reads 0.077 µM; that for `CC[C@H](c1ccnc(NC(=O)[C@@H](NC(=O)c2nonc2C)[C@H]2CC[C@H](C)CC2)c1)N1C[C@@H](C(F)(F)F)NC1=O` [Example 256, 4-methyl-N—((S)-1-((1r,4S)-4-methylcyclohexyl)-2-oxo-2-((4-((R)-1-((S)-2-oxo-4-(trifluoromethyl)imidazolidin-1-yl)propyl)pyridin-2-yl)amino)ethyl)-1,2,5-oxadiazole-3-carboxamide], 0.034 µM; that for `CCC(c1ccnc(NC(=O)C(NC(=O)c2nonc2C2CC2)C2CCC(C)CC2)c1)N1CC(C(F)(F)F)NC1=O` [Example 257, 4-cyclopropyl-N-((S)-1-((1r,4S)-4-methylcyclohexyl)-2-oxo-2-((4-((R)-1-((S)-2-oxo-4-(trifluoromethyl)imidazolidin-1-yl)propyl)pyridin-2-yl)amino)ethyl)-1,2,5-oxadiazole-3-carboxamide], 0.032 µM. Compound `CCC(c1ccnc(NC(=O)C(NC(=O)c2ccnn2CC)C2CCC(C)CC2)c1)N1CC(C(F)(F)F)NC1=O` [Example 258, 1-ethyl-N-((S)-1-((1r,4S)-4-methylcyclohexyl)-2-oxo-2-((4-((R)-1-((S)-2-oxo-4-(trifluoromethyl)imidazolidin-1-yl)propyl)pyridin-2-yl)amino)ethyl)-1H-pyrazole-5-carboxamide] yielded an IC50 of 0.009 µM. The result for `CCC(c1ccnc(NC(=O)C(NC(=O)c2ccnn2C)C2CCC(C)CC2)c1)N1CC(C(F)(F)F)NC1=O` [Example 259, 1-methyl-N-((S)-1-((1r,4S)-4-methylcyclohexyl)-2-oxo-2-((4-((R)-1-((S)-2-oxo-4-(trifluoromethyl)imidazolidin-1-yl)propyl)pyridin-2-yl)amino)ethyl)-1H-pyrazole-5-carboxamide] reads 0.006 µM. As to `CCC(c1ccnc(NC(=O)C(NC(=O)c2ccnn2C(C)C)C2CCC(C)CC2)c1)N1CC(C(F)(F)F)NC1=O` [Example 260, 1-isopropyl-N-((S)-1-((1r,4S)-4-methylcyclohexyl)-2-oxo-2-((4-((R)-1-((S)-2-oxo-4-(trifluoromethyl)imidazolidin-1-yl)propyl)pyridin-2-yl)amino)ethyl)-1H-pyrazole-5-carboxamide], the IC50 was found to be 0.013 µM. The result for `CCc1conc1C(=O)N[C@H](C(=O)Nc1cc([C@@H](COC)N2C[C@@H](C(F)(F)F)NC2=O)ccn1)C1CC(F)(F)C1` [Example 261, N—((S)-1-(3,3-difluorocyclobutyl)-2-((4-((S)-2-methoxy-1-((S)-2-oxo-4-(trifluoromethyl)imidazolidin-1-yl)ethyl)pyridin-2-yl)amino)-2-oxoethyl)-4-ethylisoxazole-3-carboxamide] reads 0.189 µM. The figure for `COC[C@H](c1ccnc(NC(=O)[C@@H](NC(=O)c2ccnn2C(C)C)C2CC(F)(F)C2)c1)N1C[C@@H](C(F)(F)F)NC1=O` [Example 262, N—((S)-1-(3,3-difluorocyclobutyl)-2-((4-((S)-2-methoxy-1-((S)-2-oxo-4-(trifluoromethyl)imidazolidin-1-yl)ethyl)pyridin-2-yl)amino)-2-oxoethyl)-1-isopropyl-1H-pyrazole-5-carboxamide] is 0.198 µM.

Compound `C[C@H]1CC[C@@H]([C@H](NC(=O)c2nonc2C2CC2)C(=O)Nc2cc(CN3C[C@@H](C(F)(F)F)NC3=O)ccn2)CC1` [Example 263, 4-Cyclopropyl-N—((S)-1-((1s,4R)-4-methylcyclohexyl)-2-oxo-2-((4-(((S)-2-oxo-4-(trifluoromethyl)imidazolidin-1-yl)methyl)pyridin-2-yl)amino)ethyl)-1,2,5-oxadiazole-3-carboxamide] showed an IC50 of 0.09 µM. The figure for `Cn1nccc1C(=O)N[C@H](C(=O)Nc1cc(CN2C[C@@H](C(F)(F)F)NC2=O)ccn1)[C@H]1CC[C@@H](C)CC1` [Example 264, 1-Methyl-N—((S)-1-((1s,4R)-4-methylcyclohexyl)-2-oxo-2-((4-(((S)-2-oxo-4-(trifluoromethyl)imidazolidin-1-yl)methyl)pyridin-2-yl)amino)ethyl)-1H-pyrazole-5-carboxamide] is 0.099 µM; for `COC[C@H](c1ccnc(NC(=O)[C@H](COC(C)(C)C(F)(F)F)NC(=O)c2nocc2C)c1)N1C[C@@H](C(F)(F)F)NC1=O` [Example 265, N—((S)-1-((4-((S)-2-methoxy-1-((S)-2-oxo-4-(trifluoromethyl)-imidazolidin-1-yl)ethyl)pyridin-2-yl)amino)-1-oxo-3-((1,1,1-trifluoro-2-methylpropan-2-yl)oxy)propan-2-yl)-4-methylisoxazole-3-carboxamide] it is 0.045 µM; for `CCc1nonc1C(=O)N[C@@H](COC(C)(C)C(F)(F)F)C(=O)Nc1cc([C@@H](COC)N2C[C@@H](C(F)(F)F)NC2=O)ccn1` [Example 266, 4-ethyl-N-((S)-1-((4-((S)-2-methoxy-1-((S)-2-oxo-4-(trifluoromethyl)imidazolidin-1-yl)ethyl)pyridin-2-yl)amino)-1-oxo-3-((1,1,1-trifluoro-2-methylpropan-2-yl)oxy)propan-2-yl)-1,2,5-oxadiazole-3-carboxamide] it is 0.015 µM. The figure for `CCc1nocc1C(=O)N[C@@H](COC(C)(C)C(F)(F)F)C(=O)Nc1cc([C@@H](COC)N2C[C@@H](C(F)(F)F)NC2=O)ccn1` [Example 267, 3-ethyl-N-((S)-1-((4-((S)-2-methoxy-1-((S)-2-oxo-4-(trifluoromethyl)imidazolidin-1-yl)ethyl)pyridin-2-yl)amino)-1-oxo-3-((1,1,1-trifluoro-2-methylpropan-2-yl)oxy)propan-2-yl)isoxazole-4-carboxamide] is 0.027 µM; for `COC[C@H](c1ccnc(NC(=O)[C@H](COC(C)(C)C(F)(F)F)NC(=O)c2nonc2C)c1)N1C[C@@H](C(F)(F)F)NC1=O` [Example 268, N-((S)-1-((4-((S)-2-methoxy-1-((S)-2-oxo-4-(trifluoromethyl)imidazolidin-1-yl)ethyl)pyridin-2-yl)amino)-1-oxo-3-((1,1,1-trifluoro-2-methylpropan-2-yl)oxy)propan-2-yl)-4-methyl-1,2,5-oxadiazole-3-carboxamide] it is 0.031 µM. With `COC[C@H](c1ccnc(NC(=O)[C@H](COC(C)(C)C(F)(F)F)NC(=O)c2nonc2C2CC2)c1)N1C[C@@H](C(F)(F)F)NC1=O` [Example 269, 4-cyclopropyl-N-((S)-1-((4-((S)-2-methoxy-1-((S)-2-oxo-4-(trifluoromethyl)imidazolidin-1-yl)ethyl)pyridin-2-yl)amino)-1-oxo-3-((1,1,1-trifluoro-2-methylpropan-2-yl)oxy)propan-2-yl)-1,2,5-oxadiazole-3-carboxamide], the IC50 was 0.01 µM. Take `CCn1nccc1C(=O)N[C@@H](COC(C)(C)C(F)(F)F)C(=O)Nc1cc([C@@H](COC)N2C[C@@H](C(F)(F)F)NC2=O)ccn1` [Example 270, 1-ethyl-N-((S)-1-((4-((S)-2-methoxy-1-((S)-2-oxo-4-(trifluoromethyl)imidazolidin-1-yl)ethyl)pyridin-2-yl)amino)-1-oxo-3-((1,1,1-trifluoro-2-methylpropan-2-yl)oxy)propan-2-yl)-1H-pyrazole-5-carboxamide]: the IC50 turned out to be 0.029 µM. The figure for `COC[C@H](c1ccnc(NC(=O)[C@H](COC(C)(C)C(F)(F)F)NC(=O)c2ccnn2C)c1)N1C[C@@H](C(F)(F)F)NC1=O` [Example 271, N-((S)-1-((4-((S)-2-methoxy-1-((S)-2-oxo-4-(trifluoromethyl)imidazolidin-1-yl)ethyl)pyridin-2-yl)amino)-1-oxo-3-((1,1,1-trifluoro-2-methylpropan-2-yl)oxy)propan-2-yl)-1-methyl-1H-pyrazole-5-carboxamide] is 0.036 µM. As for `COC[C@H](c1ccnc(NC(=O)[C@H](COC(C)(C)C(F)(F)F)NC(=O)c2ccnn2C(C)C)c1)N1C[C@@H](C(F)(F)F)NC1=O` [Example 272, 1-isopropyl-N-((S)-1-((4-((S)-2-methoxy-1-((S)-2-oxo-4-(trifluoromethyl)imidazolidin-1-yl)ethyl)pyridin-2-yl)amino)-1-oxo-3-((1,1,1-trifluoro-2-methylpropan-2-yl)oxy)propan-2-yl)-1H-pyrazole-5-carboxamide], the IC50 amounted to 0.048 µM. `Cc1nonc1C(=O)N[C@@H](COC(C)(C)C(F)(F)F)C(=O)Nc1cc(CN2C[C@@H](C(F)(F)F)NC2=O)ccn1` [Example 273, 4-methyl-N—((S)-1-oxo-1-((4-(((S)-2-oxo-4-(trifluoromethyl)-imidazolidin-1-yl)methyl)pyridin-2-yl)amino)-3-((1,1,1-trifluoro-2-methylpropan-2-yl)oxy)propan-2-yl)-1,2,5-oxadiazole-3-carboxamide]: the IC50 turned out to be 0.403 µM.

As usually defined, the IC50 is the concentration needed to halve the response being measured. Lower therefore signals greater potency.
